Assay results reported in US20210355107A1, “MULTI-SUBSTITUTED PYRIDONE DERIVATIVES AND MEDICAL USE THEREOF” (Beijing Yuezhikangtai Biomedicines Co., Ltd., priority 2018, published 2021).

Key:
kinase Axl = target: T1, kinase Axl (Homo sapiens, UniProt P30530); experiment: Mobility shift assay, inhibitory activity against kinase Axl; type: biochemical; settings: ATP at Km (81 μM), average of two independent experiments
T1 construct: purchased Carna 08-107
T1 sequence (P30530 473-894 limits assumed): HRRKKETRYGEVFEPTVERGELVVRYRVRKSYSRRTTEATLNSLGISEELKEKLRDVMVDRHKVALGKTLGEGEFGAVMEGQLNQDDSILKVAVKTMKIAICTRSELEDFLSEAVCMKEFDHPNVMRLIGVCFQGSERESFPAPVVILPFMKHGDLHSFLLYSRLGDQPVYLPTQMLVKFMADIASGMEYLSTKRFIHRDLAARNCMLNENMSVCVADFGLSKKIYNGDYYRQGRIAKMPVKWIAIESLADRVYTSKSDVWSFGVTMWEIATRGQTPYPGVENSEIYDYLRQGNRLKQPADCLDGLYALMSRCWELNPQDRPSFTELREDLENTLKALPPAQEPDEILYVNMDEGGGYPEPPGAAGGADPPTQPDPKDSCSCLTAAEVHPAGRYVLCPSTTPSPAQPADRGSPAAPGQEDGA
Description: (§1) In this test, mobility shift assay was used to test the inhibitory activity of compounds when ATP concentrations correspond to the Km of the kinases.
(§2) The concentration of test compound was 10-fold diluted from an initial concentration of 10 μM. The test result (IC50) was the average of two independent experiments.
(§3) For example, a compound at an initial concentration of 10 μM was adjusted to 500 μM with 100% DMSO, then serially diluted for 10 concentrations, and then subjected to 10-fold dilution with the buffer to prepare a diluted compound intermediate containing 10% DMSO, 5 μL of which was transferred to the 384-well plate.
(§4) 10 μL of the two enzyme solutions each was added to the 384-well plate and co-incubated with the compound for 10-15 min at room temperature.
(§5) 10 μL of the diluted substrate was added to the 384-well plate to initiate the reaction, which lasts for 1 h at 28° C.
(§6) 5) The conversion rate was read by Caliper Reader (Perkin Elmer) and the inhibition rate was calculated as the average of two tests.
(§7) 6) IC50 values were fitted with XL-fit software.

tyrosine kinase Mer = target: T2, tyrosine kinase Mer (Homo sapiens, UniProt Q12866); experiment: HTRF assay, inhibitory activity against tyrosine kinase Mer; type: biochemical; settings: ATP at Km (30 μM), two duplicate wells
T2 construct: purchased Carna 08-108
T2 sequence (Q12866 528-999 limits assumed): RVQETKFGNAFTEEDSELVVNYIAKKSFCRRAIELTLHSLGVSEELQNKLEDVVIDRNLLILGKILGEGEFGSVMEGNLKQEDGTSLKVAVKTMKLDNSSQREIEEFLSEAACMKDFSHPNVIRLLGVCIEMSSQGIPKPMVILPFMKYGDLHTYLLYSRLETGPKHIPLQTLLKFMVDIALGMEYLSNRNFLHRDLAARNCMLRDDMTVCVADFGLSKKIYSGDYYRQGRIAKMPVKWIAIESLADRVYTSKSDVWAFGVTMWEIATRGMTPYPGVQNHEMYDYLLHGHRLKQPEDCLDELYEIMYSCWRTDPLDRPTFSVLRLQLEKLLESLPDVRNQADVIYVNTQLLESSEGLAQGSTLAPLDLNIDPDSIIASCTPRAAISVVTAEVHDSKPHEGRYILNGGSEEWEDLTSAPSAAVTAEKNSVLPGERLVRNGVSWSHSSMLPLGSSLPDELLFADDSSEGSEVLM
Description: (§8) Test Example 2: Evaluation of Inhibitory Activity (IC50) of Compounds disclosed herein against Tyrosine Kinases Mer and Tyro3
(§9) In this test, HTRF method was used to test the inhibitory activity of compounds when ATP concentrations correspond to the Km of the kinases. The control substance was RXDX-106. The concentration of test compound was 3-fold diluted from an initial concentration of 10 μM, and two duplicate wells were set.
(§10) Kinase Mer (Carna, Cat. No. 08-108, Lot. No. 14CBS-0421H); Tyro3 (Carna, Cat. No. 08-109, Lot. No. 08CBS-1186H); HTRF kinase-TK kit (Cisbio, Cat. No. 62TK0PEC), the kit comprising: biotin-TK substrate lyophilized powder (Cisbio, Cat. No. 61TK0BLC, Lot. No. 07A), streptavidin-XL665 (Cisbio, Cat. No. 610SAXLG, Lot. No. 126A), TK antibody-cryptate (Cisbio, Cat. No. 610SAXLG, Lot. No. 04A), and detection buffer (including EDTA) (Cisbio, Cat. No. 62TK0PEC, Lot. No. 12A); ATP (Sigma, Cat. No. A7699-5G, CAS No. 34369-07-8, Lot. No. SLBQ6014V); DMSO (Sigma, Cat. No. D5879-1L, Lot. No. SHBH9944); HEPES (Sigma, Cat. No. V900477-500G, CAS No. 7365-45-9, Lot. No. WXBC4716V); MgCl2 (Sigma, Cat. No. 208337-1KG, Lot. No. MKBX9508V); EGTA (Sigma, Cat. No. E3889-100g, CAS 67-42-5, […], Lot. No. SLBG8546V); NP-40 (Beijing Dingguo, Cat. No. DH218, Lot. No. 36R00160); DTT (Sigma, Cat. No. D0632-25g, CAS No. 3483-12-3, Lot. No. SLBF3964V); compound plate (Labcyte, Cat. No. LP0200, Lot. No. 0006386836); assay plate (Greiner, Cat. No. 784075, Lot. No. E16123HM); control substance RXDX-106 (prepared according to the method disclosed in patent WO2013074633).
(§11) 1) Preparation of a buffer: 50 mM HEPES, 10 mM MgCl2, 1 mM EGTA, 0.01% NP-40, 2 mM DTT.
(§12) 2) Preparation of control substance and test samples: RXDX-106 and the compounds disclosed herein were each dissolved in DMSO to 10 mM and then diluted to 1 mM or an appropriate concentration with DMSO, and then serial double dilution was performed using BRAVO (Agilent). 100 nL of each was transferred from a compound plate (Labcyte-LP0200) to an assay plate (Greiner-784075) using ECHO 555 (Labcyte). The final concentration of DMSO was 1%.
(§13) 3) Mer and Tyro3 were each diluted to 0.5 nM and 1.2 nM with the detection buffer (Cisbio, Cat. No. 62TK0PEC, Lot. No. 12A). 5 μL of each was added to a 384-well plate and incubated with the compounds disclosed herein for 30 min at 22-25° C. Final concentrations of Mer and Tyro3 were 0.25 nM and 0.6 nM, respectively.
(§14) 4) Biotin-TK substrate and ATP were each diluted to a concentration twice the final concentration with 1× kinase buffer made up of HEPES, NaN3, BSA and orthovanadate. 5 μL of the mixture of substrate and ATP was added to the 384-well plate to initiate the reaction, which lasts for 1 h at 22-25° C.
(§15) 5) Streptavidin-XL665 and TK antibody-cryptate were diluted to 250 nM and 0.5 nM, respectively, with the detection buffer. […] of each of the two solutions was added to the 384-well plate to initiate the reaction, which lasts for 1 h at 22-25° C. The final concentrations of streptavidin-XL665 and TK antibody-cryptate were 125 nM and 0.25 nM, respectively.
(§16) 6) The fluorescence intensities at 665 nm and 615 nm were read with an Envision Reader (PerkinElmer) .
(§17) 7) IC50 values of the compounds were fitted with XL-fit software.

kinase c-MET = target: T3, kinase c-MET (Homo sapiens, UniProt P08581); experiment: Mobility shift assay, inhibitory activity against kinase c-MET; type: biochemical; settings: ATP at Km (35 μM), average of two independent experiments
T3 construct: purchased Carna 08-151
T3 sequence (P08581 956-1390 limits assumed): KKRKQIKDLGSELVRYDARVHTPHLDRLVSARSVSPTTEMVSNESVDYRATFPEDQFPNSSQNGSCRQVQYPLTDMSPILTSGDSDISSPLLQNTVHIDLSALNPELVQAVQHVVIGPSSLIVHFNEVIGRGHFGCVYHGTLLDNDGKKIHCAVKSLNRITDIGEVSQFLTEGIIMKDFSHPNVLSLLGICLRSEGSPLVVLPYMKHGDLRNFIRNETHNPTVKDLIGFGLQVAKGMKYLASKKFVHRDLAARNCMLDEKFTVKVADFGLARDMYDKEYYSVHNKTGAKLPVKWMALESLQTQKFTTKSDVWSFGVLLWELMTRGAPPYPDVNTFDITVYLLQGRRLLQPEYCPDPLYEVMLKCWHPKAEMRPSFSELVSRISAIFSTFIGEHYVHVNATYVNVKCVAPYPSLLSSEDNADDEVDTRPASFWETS
Description: as §1, §2, §3, §4, §5, §6, §7

tyrosine kinase Tyro3 = target: T4, tyrosine kinase Tyro3 (Homo sapiens, UniProt Q06418); experiment: HTRF assay, inhibitory activity against tyrosine kinase Tyro3; type: biochemical; settings: ATP at Km (50 μM), two duplicate wells
T4 construct: purchased Carna 08-109
T4 sequence (Q06418 453-890 limits assumed): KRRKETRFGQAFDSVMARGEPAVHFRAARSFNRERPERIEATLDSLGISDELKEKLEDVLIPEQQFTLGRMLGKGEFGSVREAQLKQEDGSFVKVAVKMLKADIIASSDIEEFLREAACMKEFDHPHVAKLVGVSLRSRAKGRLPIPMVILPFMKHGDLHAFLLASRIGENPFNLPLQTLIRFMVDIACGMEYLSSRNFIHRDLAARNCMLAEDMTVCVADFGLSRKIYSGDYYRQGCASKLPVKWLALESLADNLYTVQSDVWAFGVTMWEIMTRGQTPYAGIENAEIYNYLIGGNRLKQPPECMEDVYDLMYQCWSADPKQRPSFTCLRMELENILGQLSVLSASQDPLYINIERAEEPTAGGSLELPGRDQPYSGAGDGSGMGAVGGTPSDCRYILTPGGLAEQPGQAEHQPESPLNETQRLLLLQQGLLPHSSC
Description: as §8, §9, §10, §11, §12, §13, §14, §15, §16, §17

EBC-1 cells = experiment: EBC-1 cell proliferation, CellTiter-Glo Luminescent Cell Viability Assay; type: cell-based; settings: Homo sapiens, 72 h incubation, read-out: IC50 (nM) against EBC-1 cells
Description: Test Example 3: Inhibitory Activity of Compounds disclosed herein against EBC-1 Cells
Test method: the inhibitory activity of the compounds against EBC-1 cell proliferation was evaluated using CellTiter-Glo® Luminescent Cell Viability Assay Kit (Promega).
Test procedures: when thawing EBC-1 cells, the cell cryopreservation tube was shaken rapidly in a water bath at 37° C. to thaw the cells in 1 min. The cell suspension after thawing was mixed with RPMI1640 culture medium containing 10% FBS and centrifuged for 5 min at 1000 rpm, and the supernatant was discarded. The cell pellet was suspended in 5 mL of complete culture medium. The suspension was placed in a cell culture flask with a bottom area of 25 cm^2, and cultured in a cell incubator at 37° C./95% humidity/5% CO2. Cell passage was performed when cell confluence reached about 80%. When the cells were passaged, the original cell suspension was directly made uniform by pipetting. 1/6 of the cell suspension was kept, added with 5 mL of new complete culture medium and then made uniform by pipetting. The cell culture flask was then placed in a cell incubator for further culturing. Cell plating was performed when the cell confluence reached about 80% again. With reference to the method for cell passage, 1/6 cell suspension was kept for further culturing when the cells were plated, and the remaining 5/6 of cell suspension was placed in a 15 mL centrifuge tube. Cell viability was detected by trypan blue exclusion using an IC1000 cell counter (Countstar) to ensure that cell viability was above 90%. Cell suspension at a density of 3.33×10^4 viable cells/mL was prepared using complete culture medium, and 90 μL of the cell suspension was added into 96-well cell culture plates, so that the cell density in the cell culture plates (day 0 plate and test compound plate) was 3000 viable cells/well. A control group that contains no cell or compound but only complete culture medium and a control group that contains no compound but cells were set. The cell plates were incubated overnight in a cell incubator. […] 10 μL of the above solution was added into a corresponding cell culture plate to ensure that the initial concentration of the compound was 10 μM, the dilution factor of adjacent concentration was 3.16, and the DMSO content in the cell culture plate was 0.1%. The cell plates were then incubated in the cell incubator for 72 h. During detection, CellTiter-Glo reagent (namely CellTiter-Glo® […] cell viability test reagent, Promega, Cat. No. G7572, Lot. No. 0000310975) was melted, and the cell plate was equilibrated at room temperature for 30 min. The cell plate was added with the CellTiter-Glo reagent at 100 μL per well, and then shaken on a QB-9001 microporous quick shaker (Kylin-Bell) for 5 min to fully lyse the cells. The cell plate was left to stand at room temperature for 20 min to stabilize luminescence signals, and the luminescence value of each well was scanned by a Spectramax M3 multi-functional microplate reader (Molecular Devices) at full wavelength.
Test samples: example compounds of the present invention and cabozantinib (positive control compound).
Data analysis: cell viability was calculated for compounds at various concentrations using the following formula:
Cell viability(%)=(Lumtest compound−Lumculture solution control)/(Lumcell control−Lumculture solution control)×100%,
where Lum refers to the luminescence value of each well of the test compound plate read by the multi-functional microplate reader.
The data were analyzed using GraphPad Prism 7.0 software, fitted with nonlinear S-curve regression to give dose-response curves, and IC50 values were calculated therefrom.

Compound: COc1ccc(-c2cnc(N)c(-c3ccc(NC(=O)c4cn(C(C)C)c(C#N)c(-c5ccc(F)cc5)c4=O)cc3F)c2)cc1OC [Example 1, N-(4-(2-amino-5-(3,4-dimethoxyphenyl)pyridin-3-yl)-3-fluoro-phenyl)-6-cyano-5-(4-fluorophenyl)-1-isopropyl-4-oxo-1,4-dihydropyridine-3-carboxamide]
- IC50 (kinase Axl): 13 nM
- IC50 (tyrosine kinase Mer): 4.9 nM
- IC50 (kinase c-MET): 133 nM
- IC50 (tyrosine kinase Tyro3): 7.51 nM

Compound: COc1cc2nccc(Oc3ccc(NC(=O)c4cn(C(C)C)c(=O)n(-c5ccc(F)cc5)c4=O)cc3F)c2cc1OC [RXDX-106, reference compound]
- IC50 (tyrosine kinase Mer): 6.4 nM
- IC50 (tyrosine kinase Tyro3): 3.3 nM

Compound: N#Cc1c(C2CC2)cc(C(=O)Nc2ccc(-c3cc(-c4cnn(C5CCNCC5)c4)cnc3N)c(F)c2)c(=O)n1-c1ccc(F)cc1 [Example 12, N-(4-(2-amino-5-(1-(piperidin-4-yl)-1H-pyrazol-4-yl)pyridin-3-yl)-3-fluorophenyl)-6-cyano-5-cyclopropyl-1-(4-fluorophenyl)-2-oxo-1,2-dihydropyridine-3-carboxamide]
- IC50 (kinase Axl): 2.1 nM
- IC50 (EBC-1 cells): 98 nM
- IC50 (kinase c-MET): 23 nM

Compound: Cn1cc(-c2cnc(N)c(-c3ccc(NC(=O)c4cc(C5CC5)c(C#N)n(-c5ccc(F)cc5)c4=O)cc3F)c2)cn1 [Example 15, N-(4-(2-amino-5-(1-methyl-1H-pyrazol-4-yl)pyridin-3-yl)-3-fluorophenyl)-6-cyano-5-cyclopropyl-1-(4-fluorophenyl)-2-oxo-1,2-dihydropyridine-3-carboxamide]
- IC50 (kinase Axl): 6.6 nM
- IC50 (EBC-1 cells): 190 nM
- IC50 (kinase c-MET): 20 nM
